Results taken from US20240400571A1, “5,6 UNSATURATED BICYCLIC HETEROCYLES USEFUL AS INHIBITORS OF NOD-LIKE RECEPTOR PROTEIN 3” (Merck Sharp & Dohme LLC, priority 2023, published 2024).

Target: T1, NLRP3 inflammasome (Homo sapiens, UniProt Q96P20)
T1 construct: host or cells: THP-1 human monocytic cells, treated with PMA and stimulated with gramicidin
Experiment: ASC-SPECK formation in THP-1 cells after gramicidin stimulation (NLRP3 inflammasome activation)
Format: cell-based
Settings: PMA-treated human monocytic THP-1 cells; compound 1 h before 12.5 μg/ml gramicidin, 3-hour treatment; ASC SPECK imaging; read-out: EC50 values (nM) for Examples that inhibit NLRP3 inflammasome activation
Description: The ability of compounds to inhibit NLRP3 inflammasome activation was determined in vitro by monitoring formation of the ASC-SPECK in human monocytic THP-1 cells after stimulation. THP-1 cells (ATCC catalog #TIB-202) were maintained in complete growth media containing Roswell Park Memorial Institute RPMI (ATCC catalog #30-2001), 10% heat inactivated fetal bovine serum, 1× penicillin/streptomycin and 0.05 mM 2-mercaptoethanol. At the start of the assay, undifferentiated THP-1 cells were plated at a density of 20,000 cells per well in a 384-well plate (Poly-D-lysine coated Cell Carrier Ultra microplate, Perkin Elmer catalog #6057500) in complete growth media supplemented with 10 ng/ml phorbol 12-myristate 13-acetate (PMA; Sigma catalog #P8139), and then incubated overnight. The next day, media was replaced with assay media [RPMI (Gibco catalog #11875-093), 0.01% bovine serum albumin (BSA)]. Compounds were serially diluted in DMSO and then added to wells one hour prior to the addition of 12.5 μg/ml Gramicidin (Enzo Lifescience, catalog #ALX-350-233-M005). All incubations were carried out at 37° C. (5% CO2/95% air). Following a 3-hour treatment with gramicidin, cells are fixed with 4% paraformaldehyde and stored at 4° C. until immunofluorescence staining.
Immunofluorescence staining: Anti-ASC antibody (MBL catalog #D086-3) was desalted and labeled with Alexa 488 antibody labeling kit (Thermo catalog #A20181) prior to use as described below. After fixation, the following steps were carried out at room temperature. Cells were first permeabilized with 0.3% Triton X-100 in phosphate-buffered saline (PBS) for 15 minutes and then incubated in blocking buffer containing 5% goat serum, 0.3% tween-20 and 0.03% sodium azide in PBS for 1 hour. Cells were stained with a mixture of ASC-Alexa 488 antibody (diluted 1:200 in blocking buffer) and nuclear stain DRAQ5 (1:5000 in blocking buffer, Thermo catalog #62251) in blocking buffer for 1 hour. Following a wash with 0.3% Tween-20 in PBS, plates were imaged with an Opera Phenix High Content Screening System. The number of DRAQ5 positive cells containing ASC SPECKS were quantified in each well.
Data analysis: EC50 values were calculated by standard curve-fitting analysis using an internally developed program in TIBCO Spotfire software.

T1 sequence (Q96P20 whole entry): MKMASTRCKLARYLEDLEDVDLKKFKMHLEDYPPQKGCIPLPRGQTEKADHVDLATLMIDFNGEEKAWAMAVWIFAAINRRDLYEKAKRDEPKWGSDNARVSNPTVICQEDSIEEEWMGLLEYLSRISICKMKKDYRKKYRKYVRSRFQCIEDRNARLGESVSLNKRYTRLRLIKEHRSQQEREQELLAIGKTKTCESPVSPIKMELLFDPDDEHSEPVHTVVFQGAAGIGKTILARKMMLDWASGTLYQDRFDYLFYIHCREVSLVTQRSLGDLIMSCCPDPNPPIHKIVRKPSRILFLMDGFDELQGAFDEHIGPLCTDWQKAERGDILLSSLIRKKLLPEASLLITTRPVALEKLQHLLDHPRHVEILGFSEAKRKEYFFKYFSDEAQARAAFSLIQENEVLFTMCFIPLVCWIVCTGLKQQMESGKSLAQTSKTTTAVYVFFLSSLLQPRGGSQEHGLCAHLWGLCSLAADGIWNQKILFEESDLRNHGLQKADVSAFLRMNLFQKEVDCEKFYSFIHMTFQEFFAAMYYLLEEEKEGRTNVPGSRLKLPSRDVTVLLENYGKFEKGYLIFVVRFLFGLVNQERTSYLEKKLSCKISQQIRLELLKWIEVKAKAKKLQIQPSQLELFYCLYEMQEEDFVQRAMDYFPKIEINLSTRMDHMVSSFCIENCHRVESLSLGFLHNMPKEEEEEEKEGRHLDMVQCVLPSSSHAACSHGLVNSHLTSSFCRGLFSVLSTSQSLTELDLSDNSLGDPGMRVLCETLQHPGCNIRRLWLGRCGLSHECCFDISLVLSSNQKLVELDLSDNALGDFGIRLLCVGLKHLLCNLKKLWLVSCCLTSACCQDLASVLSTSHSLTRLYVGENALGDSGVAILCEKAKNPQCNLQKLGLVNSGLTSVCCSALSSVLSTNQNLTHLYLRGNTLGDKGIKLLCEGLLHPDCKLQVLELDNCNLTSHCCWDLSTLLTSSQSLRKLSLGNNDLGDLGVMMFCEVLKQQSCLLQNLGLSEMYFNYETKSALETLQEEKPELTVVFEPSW

CCN1CCC[C@@H](n2ccc3cc(-c4c(C)cc(C(F)(F)F)cc4O)nnc32)C1 [Example 1, (R)-2-(7-(1-ethylpiperidin-3-yl)-7H-pyrrolo[2,3-c]pyridazin-3-yl)-3-methyl-5-(trifluoromethyl)phenol]
EC50: 19 nM
